Laboratory results: ChEMBL document CHEMBL5113518, “Discovery of a Novel G-Quadruplex and Histone Deacetylase (HDAC) Dual-Targeting Agent for the Treatment of Triple-Negative Breast Cancer” (J Med Chem, 2022)
The source made the active and inactive calls. The rule behind the calls is not given here.

Assays:
Histone deacetylase [1] = experiment: Inhibition of HDAC in human HeLa nuclear extract incubated for 30 mins by fluorescence-based Glo-luminescence assay; format: cell-based
Quadruplex DNA [2] = experiment: Binding affinity to 5' FAM-labeled c-myc G4-quadruplex DNA Pu22 (unknown origin) by fluorescence quench assay; format: nucleic-acid assay
Quadruplex DNA [3] = conditions: dose 1.0 µM
Description: Binding affinity to 5' FAM and 3' TAMRA-labeled c-myc G4-quadruplex DNA Pu22 (unknown origin) assessed as change in melting temperature at 1 uM by fluorescence resonance energy transfer assay

Quadruplex DNA [4] = experiment: Binding affinity to 5' FAM-labeled c-myc G4-quadruplex DNA Pu22 (unknown origin) assessed as dissociation constant by surface plasmon resonance assay; format: nucleic-acid assay
Quadruplex DNA [5] = experiment: Binding affinity to 5' FAM-labeled […] (unknown origin) assessed as dissociation constant by surface plasmon resonance assay; format: nucleic-acid assay
Quadruplex DNA [6] = experiment: Binding affinity to 5' FAM-labeled c-myc G4-quadruplex DNA HTG21 (unknown origin) assessed as dissociation constant by surface plasmon resonance assay; format: nucleic-acid assay
Quadruplex DNA [7] = experiment: Binding affinity to 5' FAM and 3' TAMRA-labeled […] (unknown origin) assessed as change in melting temperature by fluorescence resonance energy transfer assay; format: nucleic-acid assay
Quadruplex DNA [8] = experiment: Binding affinity to 5' FAM and 3' TAMRA-labeled c-myc G4-quadruplex DNA HTG21 (unknown origin) assessed as change in melting temperature by fluorescence resonance energy transfer assay; format: nucleic-acid assay
Quadruplex DNA [9] = experiment: Binding affinity to 5' FAM and 3' TAMRA-labeled c-myc G4-quadruplex DNA duplex (unknown origin) assessed as change in melting temperature by fluorescence resonance energy transfer assay; format: nucleic-acid assay
[10] = Stabilization of DNA Pu22 (unknown origin ) single strand assessed as G4-quadruplex formation up to 30 uM in presence of potassium ions by spectrum based circular dichroism analysis
[11] = Stabilization of DNA Pu22 (unknown origin ) single strand assessed as G4-quadruplex formation in absence of potassium ions by spectrum based circular dichroism analysis; conditions: dose <= 30.0 µM; DDE = dose-dependent effect
Histone deacetylase [12] = experiment: Inhibition of HDAC in human MDA-MB-231 cells incubated for 45 mins by luminescence assay; format: cell-based
MDA-MB-231 [13] = experiment: Cytotoxicity against human MDA-MB-231 cells harboring wild type BRCA1 and wild BRCA2 assessed as reduction in cell viability; format: functional, cell-based
MDA-MB-468 = experiment: Cytotoxicity against human MDA-MB-468 cells harboring wild type BRCA1 and BRCA2 mutant reduction in assessed as cell viability; format: functional, cell-based
SUM-159-PT = experiment: Cytotoxicity against human SUM159PT cells harboring wild type BRCA1 and wild type BRCA2 assessed as reduction in cell viability; format: functional, cell-based
BT-549 = experiment: Cytotoxicity against human BT-549 cells harboring wild type BRCA1 and wild type BRCA2 assessed as reduction in cell viability; format: functional, cell-based
MDA-MB-231 [14] = experiment: Antitumor activity against human MDA-MB-231 cells xenografted in BALB/c-nu/nu mouse assessed as increment ratio at 10 mg/kg, ip measured for 31 days; format: functional; conditions: time 31 day
MDA-MB-231 [15] = experiment: Antitumor activity against human MDA-MB-231 cells xenografted in BALB/c-nu/nu mouse assessed as tumor growth inhibition at 10 mg/kg, ip measured for 31 days; format: functional; conditions: MDA-MB-231, 744 h, time 31 day, read-out: TGI

Row | Structure (SMILES) | IC50 (Histone deacetylase [1]) [nM] | DC50 (Quadruplex DNA [2]) [nM] | ΔTm (Quadruplex DNA [3]) [°C] | also measured
1 | CN(C)CCCNC(=O)c1ccc(/C=C2\CCn3c2nc2cc(NCCCCCCC(=O)NO)c(F)cc2c3=O)cc1.Cl | 70 | 300 | 7.2 | –
2 | CN(C)CCCNC(=O)c1ccc(/C=C2\CCn3c2nc2cc(N4CCN(CCCCCCCC(=O)Nc5ccccc5N)CC4)c(F)cc2c3=O)cc1 | – | 1200 | 8.2 | –
3 | CN(C)CCCNC(=O)c1ccc(/C=C2\CCn3c2nc2cc(N4CCN(Cc5ccc(C(=O)NO)cc5)CC4)c(F)cc2c3=O)cc1.Cl | 2500 | 200 | 4.3 | –
4 | CN1CCN(c2cc3nc4n(c(=O)c3cc2F)CC/C4=C\c2ccc(C(=O)Nc3ccccc3N)cc2)CC1 | – | 200 | 0.3 | –
5 | Cl.O=C(CCCCCCNC(=O)c1ccc(/C=C2\CCn3c2nc2cc(NCCCN4CCCC4)c(F)cc2c3=O)cc1)NO | 50 | 3000 | 3.2 | –
6 | CN(C)CCCNC(=O)c1ccc(/C=C2\CCn3c2nc2cc(N4CCN(CCCCC(=O)NO)CC4)c(F)cc2c3=O)cc1.Cl | 1500 | 800 | 16.7 | –
7 | CN(C)CCCNC(=O)c1ccc(/C=C2\CCn3c2nc2ccc(OCCCCCCC(=O)NO)cc2c3=O)cc1.Cl | 60 | 900 | 4.4 | –
8 | CN(C)CCCNC(=O)c1ccc(/C=C2\CCn3c2nc2cc(N4CCN(Cc5ccc(/C=C/C(=O)Nc6ccccc6N)cc5)CC4)c(F)cc2c3=O)cc1 | 8100 | 300 | 0.7 | –
9 | CN(C)CCCNc1cc2nc3n(c(=O)c2cc1F)CC/C3=C\c1ccc(C(=O)Nc2ccccc2N)cc1 | 5800 | 200 | 2.3 | –
10 | CCN(CC)CCCNC(=O)c1ccc(/C=C2\CCn3c2nc2cc(NCCCN4CCCC4)c(F)cc2c3=O)cc1 | – | 1400 | 17.4 | Kd (Quadruplex DNA [4]): 1800 nM; Kd (Quadruplex DNA [5]): 3600 nM; Kd (Quadruplex DNA [6]): > 10000 nM; ΔTm (Quadruplex DNA [7]): 6.4 °C; ΔTm (Quadruplex DNA [8]): 7.3 °C; ΔTm (Quadruplex DNA [9]): 1.8 °C; Activity [10]: Active; Activity [11]: Dde; IC50 (Histone deacetylase [12]): > 10000 nM; IC50 (MDA-MB-231 [13]): 10700 nM; IC50 (MDA-MB-468): 47100 nM; IC50 (SUM-159-PT): 47300 nM; IC50 (BT-549): 14600 nM; T/C (MDA-MB-231 [14]): 69.7%; inhibition in vivo at 10 mg/kg (MDA-MB-231 [15]): 48.2%
11 | O=C(CCCCCCC(=O)Nc1ccccc1)NO [VORINOSTAT] | – | – | – | IC50 (MDA-MB-468): 2300 nM; IC50 (BT-549): 2300 nM; T/C (MDA-MB-231 [14]): 39.3%
12 | CN(C)CCCNC(=O)c1ccc(/C=C2\CCn3c2nc2cc(N4CCN(CCCCCCC(=O)NO)CC4)c(F)cc2c3=O)cc1.Cl | 2100 | 1700 | 15.9 | –
13 | CN1CCN(c2cc3nc4n(c(=O)c3cc2F)CC/C4=C\c2ccc(C(=O)NO)cc2)CC1 | – | 2900 | 5.7 | –
14 | CN(C)CCCNC(=O)c1ccc(/C=C2\CCn3c2nc2cc(N4CCN(Cc5ccc(/C=C/C(=O)NO)cc5)CC4)c(F)cc2c3=O)cc1.Cl | 1900 | 200 | 1.8 | –
15 | CN(C)CCCNC(=O)c1ccc(/C=C2\CCn3c2nc2cc(N4CCN(CCCC(=O)NO)CC4)c(F)cc2c3=O)cc1 | – | 1300 | 16.4 | –
16 | Nc1ccccc1NC(=O)c1ccc(/C=C2\CCn3c2nc2cc(NCCCN4CCCC4)c(F)cc2c3=O)cc1 | 8600 | 600 | 0.6 | –
17 | Nc1ccccc1NC(=O)c1ccc(CNC(=O)OCc2cccnc2)cc1 | – | – | 0.1 | –
18 | CN(C)CCCNC(=O)c1ccc(/C=C2\CCn3c2nc2cc(N4CCN(CCCCCC(=O)NO)CC4)c(F)cc2c3=O)cc1.Cl | 1600 | 900 | 17.3 | –
